In patent US6458764B1, “GRF analogs with increased biological potency” (Theratechnologies Inc., priority 1995, dated 2002):
Where no end group is shown, it is not given here. The star is where a group is joined. Hexenoyl(3E) = CC/C=C/CC(=O)*

Experiments:
[1] = system: serum IGF-I; assay: Repeated S.C. administrations of GRF analogs, serum IGF-I levels in pigs (Example I, Experiments 1-3; radioimmunoassay); format: in vivo, pigs (Landrace x Yorkshire); details: for serum IGF-I, Day 1 (pretreatment): pretreatment baseline
Description: The objective of these experiments was to assess the potential of the GRF analogs as anabolic agents.
Therefore, in order to investigate the anabolic potency of the fatty acid-GRF analogs, their ability to increase IGF-I levels following repeated S.C. administrations in pig was evaluated.
26 Landrace x Yorkshire castrated male pigs (40-45 kg BW) were randomly distributed into 4 experimental groups:
Each animal was injected BID (twice a day) subcutaneously for 4 consecutive days. One blood sample was collected each morning prior to the first injection of the day, and the day after the last injection, for IGF-I measurement.
40 Landrace x Yorkshire castrated male pigs (40-45 kg BW) were randomly distributed into 5 experimental groups:
Each animal was injected BID (twice a day) subcutaneously for 5 consecutive days. One blood sample was collected each morning prior to the first injection of the day, and the day after the last injection, for IGF-I measurement.
48 Landrace x Yorkshire castrated male pigs (40-45 kg BW) were randomly distributed into 6 experimental groups:
The selected doses were 30 μg/kg for hGRF(1-44)NH2 analogs and 20 μg/kg for hGRF(1-29)NH2 analogs, which give identical doses on a molar basis. Each animal was injected BID (twice a day) subcutaneously for 5 consecutive days. One blood sample was collected each morning prior to the first injection of the day, and the day after the last injection, for IGF-I measurements.
IGF-I levels were measured in pig serum by double antibody radioimmunoassay after formic acid-acetone extraction, as previously described (Abribat T. et al., 1993, J. Endocrinol., 39:583-589). The extraction prior to radioimmunoassay is a necessary step to remove endogenous IGF-binding proteins.
In both experiments, the IGF-I data were analyzed by a two way repeated measure analysis of variance, with day and treatment (GRF analog) as sources of variation. Multiple comparison procedures were there run (Student-Newman Keuls method). A P<0.05 was considered as statistically significant.

[2] = metabolites have no residual biological activity; cited from earlier work
[3] = system: pig serum GH; assay: Intravenous GH-releasing potency in pigs (Example III); format: in vivo, pigs (Landrace x Yorkshire); details: 4 μg/kg
Description: This experiment was conducted to test the I.V. acute GH-releasing potency of (Hexenoyl trans-3)0 hGRF (1-29) NH2, a GRF analog, in a model physiologically close to human and to compare it to that of hGRF(1-29)NH2.
(Hexenoyl trans-3)0 hGRF (1-29) NH2 is a combination of the natural hGRF(1-29)NH2 and natural fatty acids. This study was a multidose, single I.V. injection study.
ADMINISTRATION: intravenous acute injection.
(§1) TEST SYSTEM: Landrace x Yorkshire pigs.
DESIGN: […] pigs (4 spare animals) were cannulated (a catheter surgically implanted in one jugular vein) within on week, before the study. On days 1 and 7, cannulated animals were randomly distributed into 7 groups (n=4 pigs per group).
Blood samples for pGH assay were collected every 20 min from 1 hour before to 5 hours after GRF injections, with additional samplings 10 and 30 min after injection (n=21 samples). Blood samples are allowed to clot at +4° C. Serum will be harvested by centrifugation, stored at −20° C. and submitted to pGH assays.

[4] = system: pig serum GH; assay: Subcutaneous GH-releasing potency in pigs (Example IV); format: in vivo, pigs (Landrace x Yorkshire); details: for effect on GH area under the curve, 0 to 420 minutes following injection: S.C., FIG. 5
Description: This experiment was conducted to test the S.C. acute GH-releasing potency of (Hexenoyl trans-3)0 hGRF (1-29) NH2, a GRF analog, in a model physiologically close to human and to compare it to that of hGRF(1-29)NH2.
ADMINISTRATION: Subcutaneous acute injection.
as §1
DESIGN: Thirty six (36) pigs (4 spare animals) were cannulated (a catheter surgically implanted in one jugular vein) within one week, before the study. On days 1 and 7, cannulated animals were randomly distributed into 8 groups (n=4 pigs per group).
Blood samples for pGH assay were collected every 20 min from 1 hour before to 7 hours after GRF injections, (n=25 samples). Blood samples were allowed to clot at +4CC. Serum is harvested by centrifugation, stored at −20° C. and submitted to pGH assays.

[5] = system: IGF-1 levels in pig sera; assay: Effect of hGRF(1-44)NH2 analogs on IGF-1 levels following S.C. chronic administration in growing male pigs (Example XI, IRMA); format: in vivo
Description: The objective of this experiment was to compare the effects of 8 different hGRF(1-44)NH2 analogues including TH 9507 on IGF-1 levels following S.C. chronic administration in growing male pigs.
Animal procedures were conducted as described in the protocol GRF-30 submitted Apr. 30, 1999, with the following modification: only 8 GRF analogues, including TH 9507, were provided by the sponsor. Accordingly, the study was performed on 30 pigs.
Laboratory procedures were conducted as follow: IGF-l levels were measured in pig sera using a commercial kit (DSL-5600) purchased from Diagnostic Systems Laboratories Inc., Tex., USA. Briefly, IGF-1 levels are quantified using a two-site immunoradiometric assay (IRMA) following acid-ethanol extraction.
Statistical analysis: IGF-1 data were subjected to a two-way repeated measures analysis of variance, with time (day 1, 3 or 6) and treatments (A to J) as variation factors pairwise multiple comparison procedures were then run by the Student-Newman-Keuls method. All statistical procedures were performed using the computerized SigmaStat software (Jandel Scientific). A P<0.05 was considered statistically significant.

[6] = Experiment 1, 20 μg/kg BID SC × 4 days, mean of 6 to 7
[7] = Experiment 2, 40 μg/kg BID SC × 5 days, mean of 8
[8] = Experiment 3, 30 μg/kg BID SC × 5 days, mean of 8

Q: For “hGRF (1-29)NH2 [hGRF(1-29)NH2, reference compound]”, which “effect on IGF-I levels” value ([1]; Experiment 1, 20 μg/kg BID SC × 4 days) is on record?
A: The value was “ineffective”.

Q: And the “effect on IGF-I levels” value ([1]; Experiment 1, 20 μg/kg BID SC × 4 days, listed as Human GRF(1-29)NH2)?
A: The value was “no effect on IGF-I levels”.

Q: What about the “serum IGF-I, Day 2” value [1, 6] of the same substance?
A: The value was 235 ng/mL.

Q: What about the “serum IGF-I, Day 3” value [1, 6] of the same substance?
A: The value was 263 ng/mL.

Q: And the “serum IGF-I, Day 4” value [1, 6]?
A: The value was 258 ng/mL.

Q: And the “serum IGF-I, Day 5” value [1, 6]?
A: The value was 262 ng/mL.

Q: What about the “serum IGF-I, Day 1 (pretreatment)” value [1, 6] of the same substance?
A: Its value is 252 ng/mL.

Q: What about the “serum IGF-I levels” value ([1]; Experiment 2, 40 μg/kg BID SC × 5 days) of the same substance?
A: Its value is “remained stable”.

Q: And the “serum IGF-I, Day 2” value [1, 7]?
A: Its value is 243 ng/mL.

Q: And the “serum IGF-I, Day 3” value [1, 7]?
A: The value was 267 ng/mL.

Q: And the “serum IGF-I, Day 4” value [1, 7]?
A: Its value is 275 ng/mL.

Q: What about the “serum IGF-I, Day 5” value [1, 7] of the same substance?
A: Its value is 267 ng/mL.

Q: And the “serum IGF-I, Day 6” value [1, 7]?
A: The value was 256 ng/mL.

Q: And the “serum IGF-I, Day 1 (pretreatment)” value [1, 7]?
A: Its value is 244 ng/mL.

Q: What about the “degradation in a serum medium” value [2] of the same substance?
A: The value was “rapidly degraded”.

Q: And the “effect on GH area under the curve (0 to 300 minutes following injection)” value ([3]; I.V., FIG. 3)?
A: The value was “significant effect on GH secretion”.

Q: What about the “duration of GH release following injection” value ([3]; one intravenous injection, FIG. 2) of the same substance?
A: Its value is “approximately 60 minutes”.

Q: And the “effect on GH area under the curve, 0 to 420 minutes following injection” value (“effect … to 420 minutes following injection” for short) ([4]; 1.25 μg/kg)?
A: Its value is “did not induce any significant GH response”.

Q: What about the “effect … to 420 minutes following injection” value ([4]; 5 μg/kg) of the same substance?
A: Its value is “did not induce any significant GH response”.

Q: What about the “effect … to 420 minutes following injection” value ([4]; 20 μg/kg) of the same substance?
A: Its value is “did not induce any significant GH response”.

Q: And the “duration of GH response following administration” value ([4]; one subcutaneous injection, 5 μg/kg, FIG. 4)?
A: Its value is ≤ 60 min.

Q: For “hGRF(1-44)NH2 (YADAIFTNSYRKVLGQLSARKLLQDIMSRQQGESNQERGARARL-NH2) [reference compound]”, which “effect on IGF-I levels” value ([1]; Experiment 3, 30 μg/kg BID SC × 5 days, except a significant effect on day 5, not sustained on day 6) is on record?
A: Its value is “little or no effect on IGF-I levels”.

Q: What about the “serum IGF-I, Day 2” value [1, 8] of the same substance?
A: Its value is 254 ng/mL.

Q: What about the “serum IGF-I, Day 3” value [1, 8] of the same substance?
A: Its value is 285 ng/mL.

Q: What about the “serum IGF-I, Day 4” value [1, 8] of the same substance?
A: The value was 297 ng/mL.

Q: And the “serum IGF-I, Day 5” value [1, 8]?
A: Its value is 303 ng/mL.

Q: What about the “serum IGF-I, Day 6” value [1, 8] of the same substance?
A: Its value is 296 ng/mL.

Q: And the “serum IGF-I, Day 1 (pretreatment)” value [1, 8]?
A: Its value is 245 ng/mL.

Q: What about the “variations of IGF-1 concentrations in the study period” value ([5]; injected subcutaneously in pigs twice a day at 10 ug/kg, FIG. 7) of the same substance?
A: Its value is “not able to induce any significant increase in IGF-1 levels”.

Q: Which results are given for “TH 9507: one of 8 different hGRF(1-44)NH2 analogues provided by the sponsor; structure not stated ({Hexenoyl(3E)}-YADAIFTNSYRKVLGQLSARKLLQDIMSRQQGESNQERGARARL-NH2)”?
A: IGF-1 levels on day 6 compared to basal levels on day 1 ([5]; S.C. chronic administration in growing male pigs, FIG. 7): significantly increased IGF-1 levels; IGF-1 levels following 5 days of injection ([5]; S.C. chronic administration in growing male pigs, saline group 190.1±21.0 ng/ml): 279.1 ± 28.4 ng/mL
